Assay results reported in patent US12662505B2, “Steviol glycoside solubility enhancers” (CARGILL, INCORPORATED, priority 2019, dated 2026).

What was measured:
[1] = format: physicochemical
Experimental: Clear solutions without precipitates are considered soluble. Unless indicated otherwise herein, the term “solubility” refers to “equilibrium solubility.”
Upon heating to 80° C. for 15 minutes, rebaudioside D has an equilibrium solubility of 0.08% for at least four days at room temperature.

[2] = sensory evaluation; cited from earlier work

Row | equilibrium solubility [1] | instantaneous solubility [1] | Compound | sweetness relative to sucrose [2]
1 | 0.08% | less than 0.08% | C=C1C[C@@]23CC[C@H]4[C@@](C)(CCC[C@@]4(C)C(=O)O[C@@H]4O[C@H](CO)[C@@H](O)[C@H](O)[C@H]4O[C@@H]4O[C@H](CO)[C@@H](O)[C@H](O)[C@H]4O)[C@@H]2CC[C@]1(O[C@@H]1O[C@H](CO)[C@@H](O)[C@H](O[C@@H]2O[C@H](CO)[C@@H](O)[C@H](O)[C@H]2O)[C@H]1O[C@@H]1O[C@H](CO)[C@@H](O)[C@H](O)[C@H]1O)C3 [Rebaudioside D] | 200-220 times sweeter than sucrose
2 | about 0.2% | about 0.13% | C=C1C[C@@]23CC[C@H]4[C@@](C)(CCC[C@@]4(C)C(=O)O[C@@H]4O[C@H](CO)[C@@H](O)[C@H](O[C@@H]5O[C@H](CO)[C@@H](O)[C@H](O)[C@H]5O)[C@H]4O[C@@H]4O[C@H](CO)[C@@H](O)[C@H](O)[C@H]4O)[C@@H]2CC[C@]1(O[C@@H]1O[C@H](CO)[C@@H](O)[C@H](O[C@@H]2O[C@H](CO)[C@@H](O)[C@H](O)[C@H]2O)[C@H]1O[C@@H]1O[C@H](CO)[C@@H](O)[C@H](O)[C@H]1O)C3 [Rebaudioside M] | –
